The text below walks through data of patent US20240208988A1, “Alstonine Derivatives and Salts Thereof” (priority 2021, published 2024).

Entries after “also recorded” stand apart in the source; their conditions may differ. Counter-ions that a name gives are not always drawn.

Experiment [1] deals with Zebrafish (Danio rerio). Briefly: Social interaction test in zebrafish exposed to MK-801. It counts as in vivo. The settings on record: for Social Interaction Test: Time immobile: 20 min drug pre-exposure, then 20 min MK-801 5 μM or water; for total distance traveled in the social interaction test / time spent in the interaction zone (social interaction), effect of the substance itself: main effect; for total distance traveled in the social interaction test: FIG. 3; for time spent in the interaction zone (social interaction), effect of the substance itself: two-way ANOVA, Bonferroni post hoc; for number of crossings in the social interaction test: main or interaction effect with MK-801, FIG. 4; for pre-exposure concentration at which MK-801 increased the number of crossings (Bonferroni post hoc): social interaction test, FIG. 4. On the procedure: (§1) Here, the ability of alstonine salts to reverse schizophrenia-like symptoms produced by MK-801 in zebrafish was evaluated. The atypical antipsychotic olanzapine was used as a comparison.
(§2) Experiments were performed using male and female (50:50 ratio) short-fin wild-type zebrafish (4-month-old, 300-500 mg). Adult animals were obtained from a local commercial supplier (Delphis, RS, Brazil). The animals were maintained at Instituto de Ciências Básicas de Saúde in a light/dark cycle of 14/10 h with lights on at 7:00 a.m. for at least two weeks before tests. Fish were kept in 40-L (30×46×33 cm) unenriched glass tanks with non-chlorinated water at a maximum density of five animals per liter. Tank water satisfied the controlled conditions required for zebrafish (26±2° C.; pH 7.0±0.3; dissolved oxygen at 7.0±0.4 mg/L; total ammonia at <0.01 mg/L; total hardness at 5.8 mg/L; alkalinity at 22 mg/L CaCO3; conductivity of 1,500-1,600 μS/cm) and was constantly filtered by mechanical, biological, and chemical filtration systems. Food was provided twice a day as commercial flake food (Poytara®, SP, Brazil) plus brine shrimp (Artemia salina). The sex of the animals was confirmed after euthanasia by dissecting and analyzing the gonads. For all experiments, no sex effects were observed, so data was pooled together. Animals were euthanized by hypothermic shock according to the AVMA Guidelines for the Euthanasia of Animals (Leary and Johnson, 2020).
(§3) Olanzapine and MK-801 (dizocilpine) were purchased from Sigma-Aldrich (St. Louis, MO, USA). Alstonine hydrochloride and alstonine hydrobromide were prepared as described herein. MK-801 and either olanzapine or alstonine salt were dissolved in distilled water; alstonine salt stock solutions were sonicated in an ultrasonic bath. MK-801 solutions were freshly prepared, while alstonine salt stock solutions were kept refrigerated for up to five days. Exposure solutions were renovated halfway through the experiment, with a maximum of four fish exposed to the same solution.
(§4) Different sets of animals were used for each experiment, totaling 240 zebrafish in the study (plus 80 zebrafish serving as stimulus animals). Animals were individually exposed to water, olanzapine, or alstonine salt solutions at 2.5, 5, or 10 mg/L in 500-mL beakers containing 200-mL solution for 20 min. These concentrations were extrapolated from mice studies. Fish were then transferred to another beaker containing either water or MK-801 at 5 μM and remained there for another 20 minutes.
The protocol for the social interaction test in zebrafish followed the method described by Benvenutti et al. (2021) Journal of Neuroscience Research 00: 1-16. After exposure, animals were placed for 7 min in a tank (30×10×15 cm) flanked by two identical tanks (15×10×13 cm) either empty (neutral stimulus) or containing 10 unknown zebrafish (social stimulus). All three tanks were filled with water in standard conditions at a level of 10 cm. The position of the social stimulus (right or left) was counterbalanced throughout the tests. The water in the test tanks was changed between every animal. To assess social behavior, the test apparatus was virtually divided into three vertical zones (interaction, middle, and neutral). Animals were habituated to the apparatus for 2 min and then analyzed for the last 5 min. Videos were recorded from the front view and time spent in the interaction zone was quantified as a proxy for social interaction. Additionally, total distance traveled, number of crossings between the vertical zones of the tank and immobility time were quantified as secondary locomotor parameters. All outcomes were automatically scored using ANY-Maze software (Stoelting Co., Wood Dale, IL, USA).
GraphPad Prism 8 (version 8.4.3) for macOS was used to run the statistical analyses and plot the results. No animals were excluded, except for two data points in the open tank test due to a failure in video acquisition. […]

Experiment [2] relates to Zebrafish (Danio rerio). Briefly: Open tank test in zebrafish exposed to MK-801. In kind it is in vivo. The settings on record: for total distance in the open tank test: FIG. 7; for absolute turn angle in the open tank test: FIG. 8; for number of clockwise rotations in the open tank test: FIG. 9; for time spent immobile in the open tank test: for pretreatments: effect on the MK-801-induced increase, FIG. 10; for Open Tank Test: Absolute turn angle / Open Tank Test: Time immobile / Open Tank Test: Clockwise rotations / Open Tank Test: Total distance: immediately after social interaction test, 10 min; for Open Tank Test: Clockwise rotations / Open Tank Test: Total distance: bracket = kind of effect and concentration (mg/L). The method, then: as §1, §2, §3, §4
The protocol for the open tank test followed the method described by Benvenutti et al. (2021) Journal of Neuroscience Research 00: 1-16. Immediately after the social interaction test, animals were placed in the center of the open tank arena and recorded for 10 min. The apparatus consisted of a white circular arena (24 cm in diameter and 8 cm in height, 2 cm water level). The apparatus format and the acquisition of videos from the top view allows the evaluation of locomotor parameters related to stereotypic behavior (circular movements and absolute turn angle). The water was changed between every animal. The following outcomes were automatically scored using ANY-Maze software (Stoelting Co., Wood Dale, IL, USA): total distance traveled, absolute turn angle, number of clockwise rotations, and immobility time.
GraphPad Prism 8 (version 8.4.3) for macOS was used to run the statistical analyses and plot the results. No animals were excluded, except for two data points in the open tank test due to a failure in video acquisition. Data were analyzed by two-way ANOVA, with alstonine salt or olanzapine pretreatment (Drug_1) and MK-801 treatment (Drug_2) as the main factors. Bonferroni post hoc test was applied as appropriate. The significant level was set at p<0.05. Data were expressed as mean standard deviation.

Another experiment has as its system rodents. The settings on record: acute administration; literature data; cited from earlier work.
Experiment [3] relates to D1, D2, and 5-HT2A receptors. The settings on record: cortex membranes; preliminary binding studies (Costa-Campos et al., 1998); cited from earlier work.
A further experiment deals with dopamine (DA) uptake. The settings on record: mouse striatal synaptosomes (Linck et al. 2015); cited from earlier work.
The subject of a further experiment is mice. The settings on record: cited from earlier work.

Take `C[C@]12N[C@H](Cc3ccccc31)c1ccccc12` [MK-801, dizocilpine, reference compound]: in the experiment with Zebrafish (Danio rerio) [1], the “Social Interaction Test: Time immobile” value is listed as “=”, the “total distance traveled in the social interaction test” value (“total distance traveled” below) is reported as “increased the total distance traveled relative to controls” and the “number of crossings in the social interaction test” value is on record as “had no effect on the number of crossings”. In addition, the “Social Interaction Test: Crossings” value in the experiment with Zebrafish (Danio rerio) [1] (Ctrl vs. MK within pretreatment level, bracket = concentration (mg/L)) is recorded as “=”. Also, in the experiment on Zebrafish (Danio rerio) [1] (FIG. 5), the “time spent immobile in the social interaction test” value was “tended to decrease the time spent immobile”. In addition, in the experiment on Zebrafish (Danio rerio) [1] (FIG. 2), the “time spent in the interaction zone (social interaction), effect of the substance itself” value (“time spent in the interaction zone” for short) was “decreased social preference”. Further, in the experiment with Zebrafish (Danio rerio) [2], the “total distance in the open tank test” value is “decreased the total distance relative to controls”, the “absolute turn angle in the open tank test” value is reported as “decreased the absolute turn angle relative to controls”, the “number of clockwise rotations in the open tank test” value (“number of clockwise rotations” for short) is on record as “decreased the number of clockwise rotations relative to controls” and the “time spent immobile in the open tank test” value is “increased the time spent immobile”. Further, in the experiment with Zebrafish (Danio rerio) [2], the “Open Tank Test: Absolute turn angle” value is given as “↓”, the “Open Tank Test: Time immobile” value is given as “↑”, the “Open Tank Test: Clockwise rotations” value is recorded as “↓” and the “Open Tank Test: Total distance” value is recorded as “↓”.

Consider `CCN1CCCC1CNC(=O)c1cc(S(N)(=O)=O)ccc1OC` (stereo not shown) [Sulpiride], for which the “prevention of social interaction deficits caused by MK-801” value in the experiment on rodents is listed as “acutely prevents the deficits caused by MK-801”.

As to `COC(=O)C1=CO[C@@H](C)[C@H]2C[n+]3ccc4c([nH]c5ccccc54)c3C[C@H]12.[Br-]` [alstonine hydrobromide], the “time spent immobile in the social interaction test” value in the experiment on Zebrafish (Danio rerio) [1] (FIG. 5, hydrobromide) is listed as “significant interaction”. For the same compound, in the experiment with Zebrafish (Danio rerio) [1] (FIG. 5, listed as alstonine bromide, hydrobromide), the “time spent immobile in the social interaction test” value is “reduced the effects of MK-801 at the highest concentrations tested”. Further, in the experiment on Zebrafish (Danio rerio) [1], the “total distance traveled” value is “had no such effect”, the “number of crossings in the social interaction test” value is recorded as “significant interaction” and the “pre-exposure concentration at which MK-801 increased the number of crossings (Bonferroni post hoc)” value is given as 10 mg/L. In addition, the “time spent in the interaction zone” value in the experiment on Zebrafish (Danio rerio) [1] (FIG. 2, listed as alstonine bromide, hydrobromide) is on record as “none of the concentrations decreased social isolation; also recorded: did not”. Also, the “prevention of the MK-801-induced decrease of social interaction time” value with Zebrafish (Danio rerio) [1] (pretreatment 20 min before MK-801 5 μM, FIG. 2) is on record as “did not prevent the effects of MK-801”. Also, in the experiment with Zebrafish (Danio rerio) [2], the “total distance in the open tank test” value is “did not have an effect”, the “absolute turn angle in the open tank test” value is “no main effects for Drug_1 or interaction effects were observed”, the “number of clockwise rotations” value is listed as “did not have a main effect or an interaction effect” and the “time spent immobile in the open tank test” value is reported as “did not have an effect”. Further, in the experiment with Zebrafish (Danio rerio) [2], the “Open Tank Test: Absolute turn angle” value is on record as “N.E.^1”, the “Open Tank Test: Time immobile” value is reported as “N.E.^1”, the “Open Tank Test: Clockwise rotations” value is “N.E.^1” and the “Open Tank Test: Total distance” value is recorded as “N.E.^1”.

As for `COC(=O)C1=CO[C@@H](C)[C@@H]2Cn3ccc4c5ccccc5nc-4c3C[C@H]12` [alstonine hydrochloride], in the experiment on Zebrafish (Danio rerio) [1], the “Social Interaction Test: Time immobile” value is “N.E.^1”, the “total distance traveled” value is on record as “had no such effect”, the “number of crossings in the social interaction test” value is “significant interaction” and the “pre-exposure concentration at which MK-801 increased the number of crossings (Bonferroni post hoc)” value came out at 5 mg/L. In addition, in the experiment on Zebrafish (Danio rerio) [1] (FIG. 2, hydrochloride), the “time spent in the interaction zone” value is “animals exposed to 5 and 10 mg/L alstonine hydrochloride spent less time in the interaction zone as compared to controls; also recorded: decreased the interaction time”. Besides, in the experiment with Zebrafish (Danio rerio) [2], the “total distance in the open tank test” value is on record as “did not have an effect”, the “absolute turn angle in the open tank test” value is “no main effects for Drug_1 or interaction effects were observed”, the “number of clockwise rotations” value is recorded as “did not have a main effect or an interaction effect” and the “time spent immobile in the open tank test” value is given as “did not have an effect”. Further, in the experiment with Zebrafish (Danio rerio) [2], the “Open Tank Test: Absolute turn angle” value is recorded as “N.E.^1”, the “Open Tank Test: Time immobile” value is on record as “N.E.^1”, the “Open Tank Test: Clockwise rotations” value is given as “N.E.^1” and the “Open Tank Test: Total distance” value is on record as “N.E.^1”.

Regarding `COC(=O)C1=CO[C@@H](C)[C@@H]2Cn3ccc4c5ccccc5nc-4c3C[C@H]12` [alstonine], the “effect on [3H]SCH23390 or [3H]Spiperone binding” value in experiment [3] is “does not affect”. The “effect on DA uptake” value with dopamine (DA) uptake is given as “increasing DA uptake”. For the same compound, the “antipsychotic profile in mice models” value with mice (0.5-1.0 mg/kg ip) was “antipsychotic properties”. The “time to significant effects after intraperitoneal administration” value with mice (mice, ip) is listed as at most 30 min.

Turning to `Cc1cc2c(s1)Nc1ccccc1N=C2N1CCN(C)CC1` [olanzapine, reference compound], the “Social Interaction Test: Time immobile” value with Zebrafish (Danio rerio) [1] is on record as “N.E.^1”. In addition, in the experiment with Zebrafish (Danio rerio) [2], the “Open Tank Test: Absolute turn angle” value was “N.E.^1”.
